# Experimental data taken from PMC11026318, “Radiolabeled 15-mer peptide internalization is mediated by megalin (LRP2 receptor) in a CRISPR/Cas9-based LRP2 knockout human kidney cell model” (EJNMMI Radiopharmacy and Chemistry, 2024).
# What was measured:
# [1] = system: HK2 cells (parent, partial KO, LRP2 KO); experiment: Viability assay with gentamicin at cytotoxic concentration (CellTiter 96 AQueous One); assay type: cell-based, human; details: gentamicin 6 mg/mL, 48 h
# Method: The cells were seeded in a 96-well plate (10^4 cells per well) 24 h prior to the experiment. The cells treated with gentamicin at cytotoxic concentration (6 mg/mL) were incubated in parallel with the controls in standard culture medium (representing 100% cell viability). The cells cultivated with 10% DMSO in culture medium represent 0% cell viability, which was measured after 48 h using the CellTiter 96® AQueous One Solution Cell Proliferation Assay (Promega) according to the manufacturer’s protocol. Absorbance was detected using a spectrophotometric plate reader (TECAN Infinite M200).
# [2] = system: vascular endothelial growth factor (VEGF) receptor; details: in both in vitro and in vivo studies; ref Basile et al. [2011]; cited from earlier work
# [3] = molecular target: T1, megalin (LRP2 receptor) in HK2 cells (Homo sapiens, UniProt P98164); experiment: FITC-albumin accumulation studies in parent HK2 vs LRP2 knockout cells; assay type: cell-based; details: 24 µg/mL, 2 h; fluorescence of cell lysates related to total protein
# T1 construct: a human kidney cell line with high endogenous megalin expression; host or cells: HK2 human kidney epithelial cells (parent), compared with CRISPR/Cas9 LRP2 KO derivatives
# T1 sequence (P98164 26-4655): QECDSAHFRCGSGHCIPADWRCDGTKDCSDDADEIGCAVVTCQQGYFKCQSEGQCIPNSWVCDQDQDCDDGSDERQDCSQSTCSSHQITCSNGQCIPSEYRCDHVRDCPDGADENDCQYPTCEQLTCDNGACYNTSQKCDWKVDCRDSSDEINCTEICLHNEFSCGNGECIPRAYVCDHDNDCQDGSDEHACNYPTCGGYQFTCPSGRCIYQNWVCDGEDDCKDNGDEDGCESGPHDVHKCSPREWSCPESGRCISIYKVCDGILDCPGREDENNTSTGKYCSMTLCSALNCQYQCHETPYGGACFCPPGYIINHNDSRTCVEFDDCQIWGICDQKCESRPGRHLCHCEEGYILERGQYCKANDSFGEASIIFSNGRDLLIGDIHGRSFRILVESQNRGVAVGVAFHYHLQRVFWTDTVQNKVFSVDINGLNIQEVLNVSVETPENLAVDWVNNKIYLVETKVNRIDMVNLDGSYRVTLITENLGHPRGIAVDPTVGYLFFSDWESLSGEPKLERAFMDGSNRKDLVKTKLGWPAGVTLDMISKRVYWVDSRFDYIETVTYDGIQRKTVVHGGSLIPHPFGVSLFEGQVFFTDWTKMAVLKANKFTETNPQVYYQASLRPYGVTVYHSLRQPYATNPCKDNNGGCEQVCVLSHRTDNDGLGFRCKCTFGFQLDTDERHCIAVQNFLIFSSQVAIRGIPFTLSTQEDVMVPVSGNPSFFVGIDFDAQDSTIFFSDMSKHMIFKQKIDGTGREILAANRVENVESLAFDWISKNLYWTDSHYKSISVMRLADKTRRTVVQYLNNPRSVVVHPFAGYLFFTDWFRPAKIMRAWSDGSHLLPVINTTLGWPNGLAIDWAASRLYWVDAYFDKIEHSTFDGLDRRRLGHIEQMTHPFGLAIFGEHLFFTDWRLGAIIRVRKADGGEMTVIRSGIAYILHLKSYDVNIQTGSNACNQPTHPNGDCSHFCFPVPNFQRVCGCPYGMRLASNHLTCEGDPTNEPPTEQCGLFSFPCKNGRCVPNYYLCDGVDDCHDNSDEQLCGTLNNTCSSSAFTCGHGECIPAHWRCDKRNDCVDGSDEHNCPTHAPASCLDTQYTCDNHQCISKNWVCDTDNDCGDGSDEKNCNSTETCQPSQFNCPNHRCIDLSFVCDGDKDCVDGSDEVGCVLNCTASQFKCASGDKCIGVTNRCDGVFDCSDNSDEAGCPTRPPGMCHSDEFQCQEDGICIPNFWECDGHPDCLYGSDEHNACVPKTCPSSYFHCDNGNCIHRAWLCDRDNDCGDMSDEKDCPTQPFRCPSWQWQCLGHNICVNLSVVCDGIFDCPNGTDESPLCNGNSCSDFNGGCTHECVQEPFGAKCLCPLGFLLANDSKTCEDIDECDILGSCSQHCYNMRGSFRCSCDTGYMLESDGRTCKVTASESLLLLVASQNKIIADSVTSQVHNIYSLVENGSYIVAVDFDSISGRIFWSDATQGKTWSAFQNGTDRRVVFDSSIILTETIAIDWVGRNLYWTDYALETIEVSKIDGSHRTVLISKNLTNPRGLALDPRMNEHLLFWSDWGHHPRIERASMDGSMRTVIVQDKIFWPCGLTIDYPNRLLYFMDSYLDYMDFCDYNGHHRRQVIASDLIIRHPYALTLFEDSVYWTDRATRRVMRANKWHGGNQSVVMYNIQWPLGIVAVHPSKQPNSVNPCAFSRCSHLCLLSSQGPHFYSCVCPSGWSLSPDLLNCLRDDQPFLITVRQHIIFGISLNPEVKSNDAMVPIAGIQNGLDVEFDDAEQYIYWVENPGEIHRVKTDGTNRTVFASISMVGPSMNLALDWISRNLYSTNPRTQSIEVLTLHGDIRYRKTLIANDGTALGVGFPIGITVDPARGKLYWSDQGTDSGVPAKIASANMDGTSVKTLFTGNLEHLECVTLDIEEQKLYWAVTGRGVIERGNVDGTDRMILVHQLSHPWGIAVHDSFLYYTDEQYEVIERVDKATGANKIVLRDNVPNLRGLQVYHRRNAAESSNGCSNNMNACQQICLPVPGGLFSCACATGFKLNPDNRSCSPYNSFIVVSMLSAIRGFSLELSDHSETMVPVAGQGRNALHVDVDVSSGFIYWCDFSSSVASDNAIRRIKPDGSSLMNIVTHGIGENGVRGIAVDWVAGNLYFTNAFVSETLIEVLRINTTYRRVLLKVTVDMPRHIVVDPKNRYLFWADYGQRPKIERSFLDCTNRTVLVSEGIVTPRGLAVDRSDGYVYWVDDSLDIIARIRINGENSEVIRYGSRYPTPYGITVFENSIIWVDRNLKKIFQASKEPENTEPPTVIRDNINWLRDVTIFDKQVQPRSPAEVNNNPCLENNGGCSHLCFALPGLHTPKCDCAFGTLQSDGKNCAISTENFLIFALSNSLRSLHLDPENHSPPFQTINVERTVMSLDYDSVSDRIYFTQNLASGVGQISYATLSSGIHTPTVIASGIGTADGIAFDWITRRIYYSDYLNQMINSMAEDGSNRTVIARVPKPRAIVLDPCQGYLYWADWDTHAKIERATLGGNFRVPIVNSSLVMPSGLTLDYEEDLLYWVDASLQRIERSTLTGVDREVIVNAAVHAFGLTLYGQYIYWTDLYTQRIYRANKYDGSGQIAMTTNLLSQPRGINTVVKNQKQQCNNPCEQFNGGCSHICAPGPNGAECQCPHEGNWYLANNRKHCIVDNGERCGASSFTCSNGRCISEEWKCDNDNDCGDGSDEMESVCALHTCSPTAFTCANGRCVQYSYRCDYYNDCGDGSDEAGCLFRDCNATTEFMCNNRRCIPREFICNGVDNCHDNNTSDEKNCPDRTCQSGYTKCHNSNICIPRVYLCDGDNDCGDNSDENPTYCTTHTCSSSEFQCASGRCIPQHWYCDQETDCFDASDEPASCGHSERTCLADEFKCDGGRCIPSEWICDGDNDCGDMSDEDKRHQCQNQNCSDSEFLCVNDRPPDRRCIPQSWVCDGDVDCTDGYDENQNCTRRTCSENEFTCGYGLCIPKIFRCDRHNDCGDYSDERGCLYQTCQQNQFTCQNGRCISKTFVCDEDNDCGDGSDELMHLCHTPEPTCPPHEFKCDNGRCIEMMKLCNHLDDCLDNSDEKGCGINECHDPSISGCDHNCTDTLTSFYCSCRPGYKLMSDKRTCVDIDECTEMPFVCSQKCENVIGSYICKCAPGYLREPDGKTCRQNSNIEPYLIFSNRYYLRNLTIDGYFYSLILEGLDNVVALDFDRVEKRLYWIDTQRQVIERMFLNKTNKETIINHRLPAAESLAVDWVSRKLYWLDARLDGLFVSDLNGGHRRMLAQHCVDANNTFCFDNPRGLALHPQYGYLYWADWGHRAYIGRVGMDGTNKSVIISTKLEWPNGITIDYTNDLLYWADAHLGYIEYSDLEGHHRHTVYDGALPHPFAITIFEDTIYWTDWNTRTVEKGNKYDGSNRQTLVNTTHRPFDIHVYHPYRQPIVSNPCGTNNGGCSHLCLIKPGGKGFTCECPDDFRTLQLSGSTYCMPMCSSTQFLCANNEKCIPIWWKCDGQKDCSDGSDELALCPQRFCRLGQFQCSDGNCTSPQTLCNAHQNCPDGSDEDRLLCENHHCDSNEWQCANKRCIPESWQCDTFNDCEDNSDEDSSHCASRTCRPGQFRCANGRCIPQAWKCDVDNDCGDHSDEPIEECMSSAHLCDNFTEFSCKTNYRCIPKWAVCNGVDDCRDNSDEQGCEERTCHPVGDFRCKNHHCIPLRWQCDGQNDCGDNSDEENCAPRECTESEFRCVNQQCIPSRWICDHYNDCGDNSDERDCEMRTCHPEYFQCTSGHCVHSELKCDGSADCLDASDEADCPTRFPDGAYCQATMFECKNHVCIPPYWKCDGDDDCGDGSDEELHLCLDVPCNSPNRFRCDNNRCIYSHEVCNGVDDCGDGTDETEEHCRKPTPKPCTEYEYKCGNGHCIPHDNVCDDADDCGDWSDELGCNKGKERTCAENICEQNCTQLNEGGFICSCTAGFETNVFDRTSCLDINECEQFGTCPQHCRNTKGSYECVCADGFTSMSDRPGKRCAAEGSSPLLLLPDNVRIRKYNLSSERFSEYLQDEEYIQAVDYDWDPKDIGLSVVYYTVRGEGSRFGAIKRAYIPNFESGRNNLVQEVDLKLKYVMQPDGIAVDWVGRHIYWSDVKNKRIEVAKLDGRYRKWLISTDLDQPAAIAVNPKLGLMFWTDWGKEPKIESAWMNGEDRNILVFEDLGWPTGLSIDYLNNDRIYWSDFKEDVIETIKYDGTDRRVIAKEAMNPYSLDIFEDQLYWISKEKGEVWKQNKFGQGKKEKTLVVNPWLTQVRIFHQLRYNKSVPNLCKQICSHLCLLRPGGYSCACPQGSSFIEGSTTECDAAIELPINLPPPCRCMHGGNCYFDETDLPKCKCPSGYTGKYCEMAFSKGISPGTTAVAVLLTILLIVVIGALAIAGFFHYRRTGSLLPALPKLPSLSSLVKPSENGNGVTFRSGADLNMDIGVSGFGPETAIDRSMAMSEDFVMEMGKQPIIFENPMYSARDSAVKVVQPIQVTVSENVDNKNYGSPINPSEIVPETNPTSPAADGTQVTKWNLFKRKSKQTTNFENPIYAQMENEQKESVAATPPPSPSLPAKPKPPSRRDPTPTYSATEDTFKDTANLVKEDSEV
# Method: The CRISPR/cas9 gene editing technique was implemented to generate LRP2 KO HK2 cells (Fig. 1) employing designed sgRNA sequences (Table 1). HK2 cells were seeded on 24-well plate (10^5 cells/well). Cells were transfected by sgRNA (720 ng per reaction) and TrueCut™ Cas9 Protein v2 (3 840 ng per reaction; Invitrogen) using Lipofectamine™ CRISPRMAX™ Cas9 Transfection Reagent (Invitrogen) according to the manufacturer’s instructions 24 h after seeding. The knockout reactions were repeated twice for each sgRNA. Each transfection was performed after 48 h of recovery. The final group of cells transfected sequentially six times was designated as LRP2 KO. A group of cells transfected only once with NPMY sgRNA but twice with TMD and PPPSPS sgRNAs, was designated as partial KO (Figs. 2A–E, 5A and B).
# The accumulation studies of fluorescein isothiocyanate-labelled albumin (FITC-albumin, Merck) were performed in 24-well plates (10^5 cells per well). The cells were incubated with 24 µg/mL FITC-albumin, and Passive Lysis Buffer (Promega) was added to lyse the cells after 2 h treatment. The accumulated FITC-albumin was quantified by measuring the fluorescence intensity of cell lysates (Tecan Spark® multimode microplate reader). Fluorescence intensity was plotted against total protein concentration determined by the commercially available Pierce™ BCA Protein Assay Kit (ThermoFisher Scientific).
molecule,measurement,setting,value
CNC(C)C1CCC(N)C(OC2C(N)CC(N)C(OC3OCC(C)(O)C(NC)C3O)C2O)O1 (stereo not drawn) [gentamicin],"Viability of partial KO or LRP2 KO cells after treatment, compared to HK2 parent cells",[1],higher viability
"Ac-KLTWMELYQLAYKGI-NH2 [15-mer, 15 amino acid anti-VEGFR peptide, custom synthesized according to a previously published structure (Basile et al. 2011)]",Antiangiogenic effects,[2],potent antiangiogenic effects
fluorescein isothiocyanate-labelled albumin [FITC-albumin],FITC-albumin accumulation in KO cells vs parent HK2 cells,[3],Reduced FITC-albumin accumulation
